# Measured values taken from US20260042764A1, “COMPOSITIONS AND METHODS FOR INHIBITION OF KRAS” (TheRas, Inc., priority 2022, published 2026).
# How the values were obtained:
# SW620 cells (KRAS G12V) = experiment: Cell-based pERK HTRF assay in SW620 cell (Biological Example 4); settings: Homo sapiens, SW-620, SW620 (KRAS G12V) cells, pERK HTRF
# Procedure, shortened: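 This assay measures inhibition of ERK phosphorylation downstream of KRAS G12V in intact SW620 cells. Compounds are applied for 4 h over nine half-log concentrations starting at 1 μM, and pERK is quantified by HTRF.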
# [1] = target: T1, Avi-KRAS G12R (1-169) GppNHp/RAF1 RBD-3xFLAG (52-151) (Homo sapiens, UniProt P01116, G12R); experiment: Raf1-KRAS G12R-GppNHP disruption HTRF assay (Biological Example 1); format: binding
# T1 construct: Avi-KRAS G12R (1-169)
# T1 sequence (P01116 1-169 isoform P01116-2 G12R): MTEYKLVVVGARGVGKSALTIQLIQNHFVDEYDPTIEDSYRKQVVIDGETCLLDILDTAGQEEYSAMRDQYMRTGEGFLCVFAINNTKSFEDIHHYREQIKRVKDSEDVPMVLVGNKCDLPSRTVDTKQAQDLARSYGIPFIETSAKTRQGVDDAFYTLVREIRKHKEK
# Procedure, shortened: (§1)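 First, protein mix in Tris pH 7.5 buffer with NaCl, MgCl2, BSA, Tween and 10% DMSO is incubated 1 h at room temperature. Next, reagent mix is added and incubated a further 1 h at room temperature. Finally, HTRF is read and activity normalized to DMSO.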
# GP2d cells (KRAS G12D) = experiment: Cell-based pERK HTRF assay in GP2d cell (Biological Example 2); settings: GP2d, GP2d (KRAS G12D) cells, pERK HTRF
# Procedure, shortened: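 HTRF read-out of pERK (excitation 320 nm, emission 615 nm) after lysates sat 4–24 h at room temperature with Eu cryptate and d2 antibodies.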
# [2] = target: T2, Avi-KRAS WT (1-169) GppNHp/RAF1 RBD-3xFLAG (52-151) (Homo sapiens, UniProt P01116); experiment: Raf1-KRAS WT-GppNHP disruption HTRF assay (Biological Example 1); format: binding
# T2 construct: Avi-KRAS WT (1-169)
# T2 sequence (P01116 1-169 isoform P01116-2): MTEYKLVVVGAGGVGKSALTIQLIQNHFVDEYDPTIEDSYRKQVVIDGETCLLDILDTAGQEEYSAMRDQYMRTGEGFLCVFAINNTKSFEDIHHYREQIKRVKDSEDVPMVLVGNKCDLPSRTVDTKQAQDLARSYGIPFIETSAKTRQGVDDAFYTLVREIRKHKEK
# Procedure, shortened: as §1
# [3] = target: T3, Avi-KRAS G12V (1-169) GppNHp/RAF1 RBD-3xFLAG (52-151) (Homo sapiens, UniProt P01116, G12V); experiment: Raf1-KRAS G12V-GppNHP disruption HTRF assay (Biological Example 1); format: binding
# T3 construct: Avi-KRAS G12V (1-169)
# T3 sequence (P01116 1-169 isoform P01116-2 G12V): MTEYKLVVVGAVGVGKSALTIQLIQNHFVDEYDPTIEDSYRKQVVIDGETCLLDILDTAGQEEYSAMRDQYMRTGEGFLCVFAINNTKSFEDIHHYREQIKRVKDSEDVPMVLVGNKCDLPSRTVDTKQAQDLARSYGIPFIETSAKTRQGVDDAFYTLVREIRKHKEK
# Procedure, shortened: as §1
# [4] = target: T4, Avi-KRAS G12D (1-169) GppNHp/RAF1 RBD-3xFLAG (52-151) (Homo sapiens, UniProt P01116, G12D); experiment: Raf1-KRAS G12D-GppNHP disruption HTRF assay (Biological Example 1); format: binding
# T4 construct: Avi-KRAS G12D (1-169)
# T4 sequence (P01116 1-169 isoform P01116-2 G12D): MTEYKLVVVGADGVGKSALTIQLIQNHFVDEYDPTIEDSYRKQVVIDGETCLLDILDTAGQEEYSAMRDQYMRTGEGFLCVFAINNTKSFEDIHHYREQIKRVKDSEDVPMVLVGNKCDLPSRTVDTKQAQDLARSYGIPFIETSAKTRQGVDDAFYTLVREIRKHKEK
# Procedure, shortened: as §1
# [5] = KRAS G12R, GppNHp-loaded, Table 11
# [6] = KRAS WT, GppNHp-loaded, Table 11
# [7] = KRAS G12V, GppNHp-loaded, Table 11
# [8] = KRAS G12D, GppNHp-loaded, Table 11
# [9] = KRAS G12R, GppNHp-loaded, class symbols
# [10] = KRAS WT, GppNHp-loaded, class symbols
# [11] = KRAS G12V, GppNHp-loaded, class symbols
# [12] = KRAS G12D, GppNHp-loaded, class symbols
IC50 (SW620 cells (KRAS G12V)) [nM],"IC50 [1, 5] [nM]",IC50 (GP2d cells (KRAS G12D)) [nM],"IC50 [2, 6] [nM]","IC50 [3, 7] [nM]","IC50 [4, 8] [nM]",IC50 ([1]; KRAS G12R-GppNHp/RAF1 RBD HTRF) [nM],IC50 ([2]; KRAS WT-GppNHp/RAF1 RBD HTRF) [nM],IC50 ([3]; KRAS G12V-GppNHp/RAF1 RBD HTRF) [nM],IC50 ([4]; KRAS G12D-GppNHp/RAF1 RBD HTRF) [nM],IC50 (SW620 cells (KRAS G12V); class symbols) [nM],"IC50 [1, 9] [nM]",IC50 (GP2d cells (KRAS G12D); class symbols) [nM],"IC50 [2, 10] [nM]","IC50 [3, 11] [nM]","IC50 [4, 12] [nM]",SMILES
< 100,100 to 1000,< 100,100 to 1000,100 to 1000,100 to 1000,–,–,–,–,–,–,–,–,–,–,CN(CCS(C)(=O)=O)c1nc(OC[C@@]23CCCN2C[C@H](F)C3)nc2c(F)c(-c3ccc(F)c4sc(N)c(C#N)c34)c(C(F)(F)F)cc12 [Compound 217]
100 to 1000,–,< 100,–,–,–,1000 to 10000,1000 to 10000,1000 to 10000,1000 to 10000,–,–,–,–,–,–,N#Cc1c(N)sc2c(F)ccc(-c3c(C(F)(F)F)cc4c(N5C[C@H]6C[C@@H]5[C@@H](O)C6)nc(OC[C@@]56CCCN5C[C@H](F)C6)nc4c3F)c12 [Compound 360]
100 to 1000,–,< 100,–,–,–,1000 to 10000,100 to 1000,1000 to 10000,100 to 1000,–,–,–,–,–,–,CC(C)C(=O)N1CC[C@@H](N(C)c2nc(OC[C@@]34CCCN3C[C@H](F)C4)nc3c(F)c(-c4ccc(F)c5sc(N)c(C#N)c45)c(C(F)(F)F)cc23)[C@@H]1C [Compound 300]
< 100,100 to 1000,< 100,100 to 1000,100 to 1000,< 100,–,–,–,–,–,–,–,–,–,–,CC(=O)N1C[C@@H](N(C)c2nc(OC[C@@]34CCCN3C[C@H](F)C4)nc3c(F)c(-c4ccc(F)c5sc(N)c(C#N)c45)c(C(F)(F)F)cc23)[C@@H](F)C1 [Compound 187]
–,–,–,–,–,–,–,–,–,–,< 100,< 100,< 100,100 to 1000,100 to 1000,< 100,"CCN(c1nc(OC[C@@]23CCCN2C[C@H](F)C3)nc2c(F)c(-c3ccc(F)c4sc(N)c(C#N)c34)c(C(F)(F)F)cc12)[C@H]1CCN(C(=O)OC)[C@@H]1C (atropisomer, axis not shown) [Compound 688]"
< 100,–,< 100,–,–,–,< 100,100 to 1000,100 to 1000,< 100,–,–,–,–,–,–,CCN(c1nc(OC[C@@]23CCCN2C[C@H](F)C3)nc2c(F)c(-c3ccc(F)c4sc(N)c(C#N)c34)c(C(F)(F)F)cc12)[C@@H]1CCN(C(=O)N(C)C)[C@@H]1C [Compound 488]
–,–,–,–,–,–,–,–,–,–,< 100,100 to 1000,< 100,100 to 1000,100 to 1000,100 to 1000,CCN(CC)C(=O)c1cc2n(n1)CCN(c1nc(OCC34CCCN3CC(F)C4)nc3c(F)c(-c4ccc(F)c5sc(N)c(C#N)c45)c(C(F)(F)F)cc13)C2 (stereo not drawn) [Compound 645]
100 to 1000,–,< 100,–,–,–,100 to 1000,100 to 1000,100 to 1000,< 100,–,–,–,–,–,–,CC(=O)N1C[C@H](O)[C@@H](N(C)c2nc(OC[C@@]34CCCN3C[C@H](F)C4)nc3c(F)c(-c4ccc(F)c5sc(N)c(C#N)c45)c(C(F)(F)F)cc23)C1 [Compound 347]
–,–,–,–,–,–,–,–,–,–,< 100,< 100,< 100,< 100,< 100,< 100,"CCN(c1nc(OC[C@@]23CCCN2C[C@H](F)C3)nc2c(F)c(-c3ccc(F)c4sc(N)c(C#N)c34)c(C(F)(F)F)cc12)[C@H]1CCN(C(=O)[C@@H]2CCCO2)C1 (atropisomer, axis not shown) [Compound 745]"
–,–,–,–,–,–,–,–,–,–,< 100,< 100,< 100,< 100,< 100,< 100,"CCN(c1nc(OC[C@@]23CCCN2C[C@H](F)C3)nc2c(F)c(-c3ccc(F)c4sc(N)c(C#N)c34)c(C(F)(F)F)cc12)[C@H]1CCN(C(=O)N(C)C(C)C)C1 (atropisomer, axis not shown) [Compound 585]"
< 100,–,< 100,–,–,–,100 to 1000,100 to 1000,100 to 1000,100 to 1000,–,–,–,–,–,–,N#Cc1c(N)sc2c(F)ccc(-c3c(C(F)(F)F)cc4c(N5CC6OCC5C6O)nc(OC[C@@]56CCCN5C[C@H](F)C6)nc4c3F)c12 (stereo partly drawn) [Compound 508]
